Results published in ChEMBL document CHEMBL5113405, “Discovery, enantioselective synthesis of myrtucommulone E analogues as tyrosyl-DNA phosphodiesterase 2 inhibitors and their biological activities” (Eur J Med Chem, 2022).
Active and inactive are the calls of the source. The rule behind the calls is not given here.

Key:
DU-145 [1] = test: Synergistic cytotoxicity against human DU145 cells assessed as inhibition of colony formation at 5 uM incubated for 14 days in presence of etoposide by crystal violet staining based analysis; type: functional, cell-based; settings: time 14.0 day
DU-145 [2] = test: Synergistic cytotoxicity against human DU-145 cells assessed as combination index incubated for 72 hrs in presence of doxorubicin by MTT-based Chou-Talalay method; type: functional
[3] = target: T1, Tyrosyl-DNA phosphodiesterase 2 (Homo sapiens, UniProt O95551); test: Inhibition of N-terminal His-tagged human TDP2 expressed in Escherichia coli BL21 using 4-nitrophenyl phenylphosphonate as substrate incubated for 60 mins by EDTA based chromogenic assay
T1 sequence (O95551 whole entry): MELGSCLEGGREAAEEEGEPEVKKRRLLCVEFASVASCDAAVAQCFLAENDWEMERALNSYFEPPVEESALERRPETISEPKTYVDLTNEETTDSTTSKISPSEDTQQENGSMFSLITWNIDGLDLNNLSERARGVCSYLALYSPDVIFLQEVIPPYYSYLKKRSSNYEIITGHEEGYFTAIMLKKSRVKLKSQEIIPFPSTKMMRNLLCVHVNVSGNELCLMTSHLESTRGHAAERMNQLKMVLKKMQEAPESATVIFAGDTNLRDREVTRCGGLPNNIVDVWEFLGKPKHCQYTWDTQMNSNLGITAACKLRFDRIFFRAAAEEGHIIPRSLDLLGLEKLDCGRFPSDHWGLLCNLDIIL

DU-145 [4] = test: Cytotoxicity against human DU-145 cells assessed as cell growth inhibition for 72 hrs by MTT assay; type: functional
[5] = Synergistic cytotoxicity against chicken DT40 cells expressing human TDP2 assessed as combination index incubated for 72 hrs in presence of etoposide by MTT-based Chou-Talalay method; type: functional, Gallus gallus
[6] = Synergistic cytotoxicity against chicken DT40 cells assessed as combination index incubated for 72 hrs in presence of etoposide by MTT-based Chou-Talalay method; type: functional, Gallus gallus
DU-145 [7] = test: Cytotoxicity against human DU-145 cells assessed as cell growth inhibition for 72 hrs in presence of etoposide by MTT assay; type: functional
DU-145 [8] = test: Synergistic cytotoxicity against human DU-145 cells assessed as combination index incubated for 72 hrs in presence of etoposide by MTT-based Chou-Talalay method; type: functional
A549 = test: Cytotoxicity against human A549 cells assessed as cell growth inhibition for 72 hrs by MTT assay; type: functional
DU-145 [9] = test: Synergistic cytotoxicity against human DU145 cells assessed as inhibition of colony formation at 5 uM incubated for 14 days in presence of doxorubicin by crystal violet staining based analysis; type: functional, cell-based; settings: time 14.0 day
[10] = Induction of reactive oxygen species production assessed as increase in hydrogen peroxide production […] in presence of DTT by redox cycling assay; type: functional
DU-145 [11] = test: Cytotoxicity against human DU-145 cells assessed as cell growth inhibition at 10 uM for 72 hrs by MTT assay; type: functional

| IC50 [3] | Compound | GI50 (DU-145 [4]; Homo sapiens, DU-145, 72 h) | GI50 (A549; Homo sapiens, A549, 72 h) | other results |
| --- | --- | --- | --- | --- |
| 5.4 µM | CC(C)[C@@H]1C2=C(Oc3c1c(OCC(=O)N(C)C)cc1c3[C@@H](C(C)C)C3=C(O1)C(C)(C)C(=O)C(C)(C)C3=O)C(C)(C)C(=O)C(C)(C)C2=O | 26 µM | 62 µM | Activity (DU-145 [1]): Active; CI (DU-145 [2]): 0.81; CI [5]: 0.48; CI [6]: 0.95; inhibition (INH) (DU-145 [7]): 77%; CI (DU-145 [8]): 0.26; Activity (DU-145 [9]): Active |
| 26 µM | CC(C)CCOc1cc2c(c3c1[C@H](C(C)C)C1=C(O3)C(C)(C)C(=O)C(C)(C)C1=O)[C@@H](C(C)C)C1=C(O2)C(C)(C)C(=O)C(C)(C)C1=O | 19 µM | 37 µM |  |
| 29 µM | CC(C)C1C2=C(Oc3c1c(O)cc1c3C(C(C)C)C3=C(O1)C(C)(C)C(=O)C(C)(C)C3=O)C(C)(C)C(=O)C(C)(C)C2=O (racemic; form 1) | 13 µM | 26 µM |  |
| 22 µM | CC(C)[C@@H]1C2=C(Oc3c1c(OCCN1CCCC1)cc1c3[C@@H](C(C)C)C3=C(O1)C(C)(C)C(=O)C(C)(C)C3=O)C(C)(C)C(=O)C(C)(C)C2=O | 22 µM | 46 µM |  |
| 17 µM | CC(C)[C@@H]1C2=C(Oc3c1c(OCCC1OCCO1)cc1c3[C@@H](C(C)C)C3=C(O1)C(C)(C)C(=O)C(C)(C)C3=O)C(C)(C)C(=O)C(C)(C)C2=O | 12 µM | 21 µM |  |
| 19 µM | CC(C)[C@@H]1C2=C(Oc3c1c(OCCCN1CCCC1)cc1c3[C@@H](C(C)C)C3=C(O1)C(C)(C)C(=O)C(C)(C)C3=O)C(C)(C)C(=O)C(C)(C)C2=O | 38 µM | 50 µM |  |
| 42 µM | CC(C)[C@@H]1C2=C(Oc3c1c(OCC1CC1)cc1c3[C@@H](C(C)C)C3=C(O1)C(C)(C)C(=O)C(C)(C)C3=O)C(C)(C)C(=O)C(C)(C)C2=O | 13 µM | 24 µM |  |
| 41 µM | CC(C)C(=O)c1c(O)c2c(c3c1OC1=C(C(=O)C(C)(C)C(=O)C1(C)C)[C@H]3C(C)C)OC1=C(C(=O)C(C)(C)C(=O)C1(C)C)[C@@H]2C(C)C (racemic) |  |  | GI50 (DU-145 [4]; 72 h): 17 µM; GI50 (A549; 72 h): 26 µM |
| 21 µM | CCOc1cc2c(c3c1[C@H](C(C)C)C1=C(O3)C(C)(C)C(=O)C(C)(C)C1=O)[C@@H](C(C)C)C1=C(O2)C(C)(C)C(=O)C(C)(C)C1=O | 12 µM | 24 µM |  |
| 11 µM | CC(C)[C@@H]1C2=C(Oc3c1c(OCCN(C)C)cc1c3[C@@H](C(C)C)C3=C(O1)C(C)(C)C(=O)C(C)(C)C3=O)C(C)(C)C(=O)C(C)(C)C2=O | 22 µM | 54 µM |  |
| 50 µM | CC(C)C(=O)c1c(O)c2c(c3c1OC1=C(C(=O)C(C)(C)C(=O)C1(C)C)[C@H]3C(C)C)OC1=C(C(=O)C(C)(C)C(=O)C1(C)C)[C@@H]2C(C)C |  |  | GI50 (DU-145 [4]; 72 h): 41 µM; GI50 (A549; 72 h): 60 µM |
| 31 µM | Cc1ccc(COc2cc3c(c4c2[C@H](C(C)C)C2=C(O4)C(C)(C)C(=O)C(C)(C)C2=O)[C@@H](C(C)C)C2=C(O3)C(C)(C)C(=O)C(C)(C)C2=O)cc1 | 15 µM | 29 µM |  |
| 36 µM | CC(C)[C@@H]1C2=C(Oc3c1c(O)cc1c3[C@H](C(C)C)C3=C(O1)C(C)(C)C(=O)C(C)(C)C3=O)C(C)(C)C(=O)C(C)(C)C2=O | 26 µM | 56 µM |  |
| 54 µM | CC(C)[C@@H]1C2=C(Oc3c1c(OCc1ccccc1)cc1c3[C@@H](C(C)C)C3=C(O1)C(C)(C)C(=O)C(C)(C)C3=O)C(C)(C)C(=O)C(C)(C)C2=O | 19 µM | 36 µM |  |
| 25 µM | CC(C)[C@@H]1C2=C(Oc3c1c(O)cc1c3[C@@H](C(C)C)C3=C(O1)C(C)(C)C(=O)C(C)(C)C3=O)C(C)(C)C(=O)C(C)(C)C2=O | 23 µM | 27 µM |  |
|  | CC1(C)CCC2=C(O1)c1ccccc1C(=O)C2=O |  |  | Activity [10]: Active |
| 25 µM | CC(C)[C@@H]1C2=C(Oc3c1c(OCCN1CCOCC1)cc1c3[C@@H](C(C)C)C3=C(O1)C(C)(C)C(=O)C(C)(C)C3=O)C(C)(C)C(=O)C(C)(C)C2=O | 27 µM | 39.6 µM |  |
| 56 µM | COc1ccc(COc2cc3c(c4c2[C@H](C(C)C)C2=C(O4)C(C)(C)C(=O)C(C)(C)C2=O)[C@@H](C(C)C)C2=C(O3)C(C)(C)C(=O)C(C)(C)C2=O)cc1 | 40 µM | 32 µM |  |
| 12 µM | CC(COc1cc2c(c3c1[C@H](C(C)C)C1=C(O3)C(C)(C)C(=O)C(C)(C)C1=O)[C@@H](C(C)C)C1=C(O2)C(C)(C)C(=O)C(C)(C)C1=O)CN(C)C (stereo partly specified) | 28 µM | 46 µM |  |
|  | COc1cc([C@@H]2c3cc4c(cc3[C@@H](O[C@@H]3O[C@@H]5CO[C@@H](C)O[C@H]5[C@H](O)[C@H]3O)[C@H]3COC(=O)[C@H]23)OCO4)cc(OC)c1O [ETOPOSIDE] | 13 µM | 10 µM | inhibition at 10 µM (DU-145 [11]): 47% |
| 39 µM | CC(C)C(=O)c1c(O)c2c(c3c1OC1=C(C(=O)C(C)(C)C(=O)C1(C)C)[C@@H]3C(C)C)OC1=C(C(=O)C(C)(C)C(=O)C1(C)C)[C@H]2C(C)C | 31 µM | 62 µM |  |
| 10 µM | CC(C)[C@@H]1C2=C(Oc3c1c(OCCCN(C)C)cc1c3[C@@H](C(C)C)C3=C(O1)C(C)(C)C(=O)C(C)(C)C3=O)C(C)(C)C(=O)C(C)(C)C2=O | 23 µM | 46 µM |  |
